Marks after values point to notes of the source that are not given here.
Key:
[1] = Stability of PTH / TGPTH in buffer (spiked samples, direct ELISA); type: physicochemical; details: 0.5 μg/mL; 37° C.; distilled water, phosphate buffer saline, tris-buffer saline
Protocol: For the first release assay a fibrin matrix of 50 μl with 0.1 mg PTH or TGPTH per ml fibrin matrix was incubated at 37° C. in 10 ml buffer. Therefore, the concentration of PTH or TGPTH in the buffer in case of a total release would be 0.5 μg PTH or TGPTH/mL fibrin matrix. In order to compare the stability of PTH or TGPTH during the assay, samples of PTH or TGPTH were diluted directly in the buffer to a concentration of 0.5 μg PTH or TGPTH/mL fibrin matrix. Different buffers were tested: distilled water, phosphate buffer saline, tris-buffer saline.
Aliquots were taken at days 0, 1, 2, 4 and 6 and analysed by direct ELISA. […] Therefore, no conclusion could be made on the release data. The PTH stability was certainly affected by its low concentration and the buffers that were not optimal.
The release experiment was repeated by using a stabilizing buffer containing 50 mM mannitol in a 10 mM sodium acetate buffer. In addition, the buffer was exchanged every 2 days in order to prevent any degradation of peptide. […] The concentration of PTH or TGPTH in the buffer in case of a total release would be 100 μg/mL fibrin matrix (200 times more than before). […] Samples were collected every 2 to 4 days (with a change of buffer) during 2 weeks and analysed by direct ELISA. […]

[2] = test system: 1 cm segmental tibial defect; test: Sheep tibial defect model, supplemented fibrin matrix with TCP granules; type: in vivo
Protocol: The fibrin matrix was formed starting from the TISSEEL® Kit (Baxter AG, CH-8604 Volketswil/ZH) giving 4 mL fibrin matrix. TISSEEL® is produced from human derived pooled plasma and the content of active ingredients may vary from lot to lot within predefined ranges.
Matrix: A supplemented fibrin matrix containing granular material and PTH fusion peptide (TGplPTH1-34) was prepared using 3 separate syringes, a two-way syringe containing fibrin precursor solution and PTH fusion peptide (syringes 1 and 2) and two one-way syringes, one containing water and the other containing granules (syringes 3 and 4).
First the hydroxyapatite/calcium phosphate granules in syringe 4 were wetted by injection of the water of syringe 3. The fibrin precursor solution of syringe 1 (fibrinogen and TGplPTH1-34 suspended in a solution with aprotinin, a serine proteinase inhibitor which helps reduce fibrolysis to retain the integrity of the fibrin matrix) was mixed with the fibrin precursor solution of syringe 2 (thrombin in a calcium chloride solution). TGplPTH1-34 was formulated into the fibrinogen component to give a final concentration in the matrix varying from of 0.1 mg/mL to 10 mg/mL of the fibrin matrix and during the gelation process TGplPTH1-34 became crosslinked to the matrix. Fibrin precursor solutions also contained other components of fibrin matrix, such as plasma fibronectin, Factor XIIIa, plasminogen, and human albumin. When the precursor solutions are in equal volumes, a clotting process occurs to form fibrin. The clotting process takes place over several minutes which allows for the simultaneous injection of the mixed solutions into syringe 4, which contain the wetted granules. The matrix can then be introduced at the site of need where it solidifies. Enough matrix was placed in the defect to completely fill it.
Animals: A total of 42 Swiss Alpine, female sheep ranging between 44-83 kg (mean: 62.8 kg) and 2.25-4.75 years of age were chosen as experimental animals. Seven groups were formed with autografts as positive and fibrin matrix plus TCP granules as negative controls. The other groups consisted of the same fibrin matrix and TCP granules, but differed only in dosage of the TGplPTH1-34. Groups were followed for 12 weeks, when animals were sacrificed at a university-owned slaughter house. All animal experiments were conducted according to the Swiss laws of animal protection and welfare and were authorized by the local Ethical Committee and Veterinary Authorities.
Surgery: A medial approach to the tibia shaft was performed directly above the bone and extending from the distal aspect of the stifle to the hock joint, the medial fascia of the tibia was incised and the medial aspect of the tibia exposed without disturbing the periosteum. A 11 hole, 3.5 mm broad dynamic compression plate (Synthes) was contoured to the shaft with the distal end of the plate ending above the tibiotarsal joint. The plate was fixed to the bone using eleven 3.5 mm screws in a neutral position and distributing five screw holes distally and six proximally to the planned defect. The screws and plate were removed. Thereafter, the defect was marked on the bone with a scalpel blade using a gage ensuring a standardized 1 cm defect between the 5th and 6th screw hole. With an oscillating saw, the defect was cut under constant irrigation and preservation of soft tissues. The 1 cm segment including the circumferential periosteum was carefully removed and local bleeding out of the bone marrow or local soft tissue was stopped applying pressure with a gauze. The plate was repositioned and all screws reinserted before the matrix was filled into the bone gap as described above. Care was taken to distribute the matrix equally underneath the plate, on the lateral and as well as the transcortex.
For the positive autograft control group, autogenic bone was harvested through a local incision directly above the iliac crest. […]

[3] = test system: acute, open tibial shaft fractures; test: Phase II clinical study of I-040202 in tibial shaft fractures; type: in vivo, patients; details: Intent-to-Treat
Source text: This was a Phase II, prospective, randomized, controlled, open-label (dose-blinded), parallel-group, multi-center clinical study of the efficacy and safety of TGplPTH1-34 in a matrix made of fibrin (I-040202) in patients with acute, open tibial shaft fractures. The supplemented matrix was applied directly to the fracture site in the form of a paste. A total of 200 patients were randomized and treated in 31 centers across Europe.
The study consisted of four study groups: one control group using standard of care (SoC) which included intramedullary nailing and soft tissue management, and three treatment groups using 4 mL of I-040202 containing TGplPTH1-34 at concentrations of 0.133, 0.4 and 1.0 mg/mL fibrin matrix respectively (different concentrations of TGplPTH1-34), as an adjunct to SoC. Patients followed up clinically and radiologically on a monthly basis until 6 months post-surgery, and thereafter at 9 and 12 months post-surgery.
The primary endpoint was the proportion of patients who had fracture healing at 6 months as assessed by the investigator using radiographic and clinical parameters. Three doses of I-040202 in combination with SoC were compared against SoC alone.

[4] = 1 mg TGplPTH1-34/mL fibrin matrix

Row | time stable in buffer [1] [days] | Compound | amount of endosteal bone formation (histomorphometry) [2, 4] | rate of granule resorption (histomorphometry) [2, 4] | animals showing bridging ([2]; 1 mg TGplPTH1-34/mL fibrin matrix, 8 weeks) | animals healed showing stable, clinical unions ([2]; 1 mg TGplPTH1-34/mL fibrin matrix, after 12 weeks) [animals] | animals showing bending of the plate ([2]; 1 mg TGplPTH1-34/mL fibrin matrix, within the first four weeks) | periosteal healing compared to negative control material ([2]; 0.4 and 1 mg TGplPTH1-34/mL fibrin matrix) | healing compared to autograft ([2]; 0.4 and 1 mg TGplPTH1-34/mL fibrin matrix, 12 weeks) | animals with unstable fracture site ([2]; 12 weeks, plate removed, movement/torsion of the limb, TGplPTH1-34 at 1 mg/mL fibrin matrix, FIG. 4) | periosteal healing response (radiographs) ([2]; doses between 0.4 and 2 mg TGplPTH1-34/mL fibrin matrix, every time point) | rates of endosteal bone formation and granule resorption ([2]; higher doses of TGplPTH1-34) | stability of the defect at the endpoint ([2]; higher doses than about 1 mg TGplPTH1-34/mL fibrin matrix, 12 weeks) | % healed at 6 months (Clinician's assessment) ([3]; 0.133 mg TGplPTH1-34/ml fibrin matrix + SoC) | % healed at 6 months (Clinician's assessment) ([3]; 0.4 mg TGplPTH1-34/ml fibrin matrix + SoC, p = 0.084 vs SoC alone) | % healed at 6 months (Clinician's assessment) ([3]; 1.0 mg TGplPTH1-34/ml fibrin matrix + SoC)
1 | ≤ 2 | CC[C@H](C)[C@H](NC(=O)[C@H](CCC(=O)O)NC(=O)[C@H](CO)NC(=O)[C@@H](NC(=O)[C@@H](N)CO)C(C)C)C(=O)N[C@@H](CCC(N)=O)C(=O)N[C@@H](CC(C)C)C(=O)N[C@@H](CCSC)C(=O)N[C@@H](Cc1cnc[nH]1)C(=O)N[C@@H](CC(N)=O)C(=O)N[C@@H](CC(C)C)C(=O)NCC(=O)N[C@@H](CCCCN)C(=O)N[C@@H](Cc1cnc[nH]1)C(=O)N[C@@H](CC(C)C)C(=O)N[C@@H](CC(N)=O)C(=O)N[C@@H](CO)C(=O)N[C@@H](CCSC)C(=O)N[C@@H](CCC(=O)O)C(=O)N[C@@H](CCCN=C(N)N)C(=O)N[C@H](C(=O)N[C@@H](CCC(=O)O)C(=O)N[C@@H](Cc1c[nH]c2ccccc12)C(=O)N[C@@H](CC(C)C)C(=O)N[C@@H](CCCN=C(N)N)C(=O)N[C@@H](CCCCN)C(=O)N[C@@H](CCCCN)C(=O)N[C@@H](CC(C)C)C(=O)N[C@@H](CCC(N)=O)C(=O)N[C@@H](CC(=O)O)C(=O)N[C@H](C(=O)N[C@@H](Cc1cnc[nH]1)C(=O)N[C@@H](CC(N)=O)C(=O)N[C@@H](Cc1ccccc1)C(=O)O)C(C)C)C(C)C [PTH1-34] | – | – | – | – | – | – | – | – | – | – | – | – | – | –
2 | – | NQEQVSPLYKNRSVSEIQLMHNLGKHLNSMERVEWLRKKLQDVHNF (Modified Parathyroid hormone (PHT), comprisig amino acids 1-34 of native PTH as well as a transglutaminase substrate domain and a plasmin-degradable sequence) [TGplPTH1-34] | higher than with the other concentrations of TGplPTH1-34 | highest resorption rate | one | 5 | one | statistically stronger periosteal healing | equivalent to autograft | one | much stronger periosteal healing response | lower rates of both endosteal bone formation and granule resorption | much lower stability | 75.6% (34 of 45) | 80.4%* (37 of 46) | 69.2% (27 of 39)

Source: patent US20110311643A1, “SUPPLEMENTED MATRICES FOR THE REPAIR OF BONE FRACTURES” (Kuros Biosurgery AG, priority 2005, published 2011)
